Here are results for eleven compounds from patent publication US12594276B2, “Inhibitors of human immunodeficiency virus replication” (ViiV Healthcare UK (No.5) Limited, priority 2024, dated 2026).

Where two headings read alike, the source gives them in different places. A value given as a limit tells only on which side of the number the result lay.

Series [1] concerns recombinant NL4-3 virus (nef section replaced with Renilla luciferase gene) in MT-2 cells. In words: HIV cell culture assay (antiviral activity, luciferase readout). The format is cell-based. As to conditions: Renilla, NL43, MT-2 cells infected for 4-5 days with recombinant NL4-3 Renilla luciferase virus. The method, boiled down:
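Reporter virus is produced in 293T cells and its titer set in MT-2 cells by luciferase activity. MT-2 cells are then infected in the presence of serially diluted compound for 4-5 days. Luciferase is quantified and EC50 fitted to the median effect equation.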

Series [2] can be described thus: Compound cytotoxicity, XTT-based colorimetric assay. As to conditions: human. The format is cell-based. Put shortly: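 CC50 derived from XTT colorimetric signal measured on day 4 in MT2 cells that were not infected. All other steps followed the antiviral assay protocol.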
Where [3] appears, read: uninfected MT2 cells, day 4, XTT, read-out: CC50.

As to `COCCCn1nc(NS(C)(=O)=O)c2c(Cl)ccc(-n3c([C@H](Cc4cc(F)cc(F)c4)NC(=O)Cn4nc(C(F)F)c5c4C(F)(F)[C@@H]4C[C@H]54)nc4nc(C5CCC(F)(F)CC5)cc(CN5C[C@H]6C[C@@H](C5)O6)c4c3=O)c21` (atropisomer, axis not shown; (P)) [Example 531, N-[(1S)-1-[(3P)-3-[4-chloro-3-methanesulfonamido-1-(3-methoxypropyl)-1H-indazol-7-yl]-7-(4,4-difluorocyclohexyl)-5-{[(1R,5S)-6-oxa-3-azabicyclo[3.1.1]heptan-3-yl]methyl}-4-oxo-3H,4H-pyrido[2,3-d]pyrimidin-2-yl]-2-(3,5-difluorophenyl)ethyl]-2-[(2S,4R)-9-(difluoromethyl)-5,5-difluoro-7,8-diazatricyclo[4.3.0.0^2,^4]nona-1(6),8-dien-7-yl]acetamide], in series [1], the EC50 came to 0.021 nM. Moreover, in series [2], the 50% cytotoxic concentration (CC50) at 4 days was greater than 20 nM.

For the compound `COCCCn1nc(NS(C)(=O)=O)c2c(Cl)ccc(-n3c([C@H](Cc4cc(F)cc(F)c4)NC(=O)Cn4nc(C(F)F)c5c4C(F)(F)[C@@H]4C[C@H]54)nc4nc(C5CCC(F)(F)CC5)cc(NCCN5CCN(C)CC5)c4c3=O)c21` (atropisomer, axis not shown; (P)) [Example 535, N-[(1S)-1-[(3P)-3-[4-chloro-3-methanesulfonamido-1-(3-methoxypropyl)-1H-indazol-7-yl]-7-(4,4-difluorocyclohexyl)-5-{[2-(4-methylpiperazin-1-yl)ethyl]amino}-4-oxo-3H,4H-pyrido[2,3-d]pyrimidin-2-yl]-2-(3,5-difluorophenyl)ethyl]-2-[(2S,4R)-9-(difluoromethyl)-5,5-difluoro-7,8-diazatricyclo[4.3.0.0^2,^4]nona-1(6),8-dien-7-yl]acetamide], the EC50 in series [1] is 0.057 nM. In addition, the CC50 at 4 days in series [2] (setting [3]) is greater than 20 nM.

On to `COCCCn1nc(NS(C)(=O)=O)c2c(Cl)ccc(-n3c([C@H](Cc4cc(F)cc(F)c4)NC(=O)Cn4nc(C(F)F)c5c4C(F)(F)[C@@H]4C[C@H]54)nc4nc(C5CCC(F)(F)CC5)cc(NCCN5CCN(C(C)=O)CC5)c4c3=O)c21` (atropisomer, axis not shown; (P)) [Example 536, N-[(1S)-1-[(3P)-5-{[2-(4-acetylpiperazin-1-yl)ethyl]amino}-3-[4-chloro-3-methanesulfonamido-1-(3-methoxypropyl)-1H-indazol-7-yl]-7-(4,4-difluorocyclohexyl)-4-oxo-3H,4H-pyrido[2,3-d]pyrimidin-2-yl]-2-(3,5-difluorophenyl)ethyl]-2-[(2S,4R)-9-(difluoromethyl)-5,5-difluoro-7,8-diazatricyclo[4.3.0.0^2,^4]nona-1(6),8-dien-7-yl]acetamide], for which the EC50 in series [1] turned out to be 0.025 nM. Moreover, the half-maximal cytotoxic concentration (CC50) at 4 days in series [2] (setting [3]) is greater than 20 nM.

In the case of `COCCCn1nc(NS(C)(=O)=O)c2c(Cl)ccc(-n3c([C@H](Cc4cc(F)cc(F)c4)NC(=O)Cn4nc(C(F)F)c5c4C(F)(F)[C@@H]4C[C@H]54)nc4nc(C5CCC(F)(F)CC5)cc(CN5CC(F)(F)C5)c4c3=O)c21` (atropisomer, axis not shown; (P)) [Example 538, N-[(1S)-1-[(3P)-3-[4-chloro-3-methanesulfonamido-1-(3-methoxypropyl)-1H-indazol-7-yl]-5-[(3,3-difluoroazetidin-1-yl)methyl]-7-(4,4-difluorocyclohexyl)-4-oxo-3H,4H-pyrido[2,3-d]pyrimidin-2-yl]-2-(3,5-difluorophenyl)ethyl]-2-[(2S,4R)-9-(difluoromethyl)-5,5-difluoro-7,8-diazatricyclo[4.3.0.0^2,4]nona-1(6),8-dien-7-yl]acetamide], the EC50 in series [1] was 0.007 nM. For the same compound, the CC50 at 4 days in series [2] (setting [3]) was greater than 20 nM.

Turning to `COCCCn1nc(NS(C)(=O)=O)c2c(Cl)ccc(-n3c([C@H](Cc4cc(F)cc(F)c4)NC(=O)Cn4nc(C(F)F)c5c4C(F)(F)[C@@H]4C[C@H]54)nc4nc(C5CCC(F)(F)CC5)cc(NCC(C)(C)N5CCCCC5)c4c3=O)c21` (atropisomer, axis not shown; (P)) [Example 539, N-[(1S)-1-[(3P)-3-[4-chloro-3-methanesulfonamido-1-(3-methoxypropyl)-1H-indazol-7-yl]-7-(4,4-difluorocyclohexyl)-5-{[2-methyl-2-(piperidin-1-yl)propyl]amino}-4-oxo-3H,4H-pyrido[2,3-d]pyrimidin-2-yl]-2-(3,5-difluorophenyl)ethyl]-2-[(2S,4R)-9-(difluoromethyl)-5,5-difluoro-7,8-diazatricyclo[4.3.0.0^2,^4]nona-1(6),8-dien-7-yl]acetamide], in series [1], the EC50 was found to be 0.006 nM. In series [2] (setting [3]), the CC50 at 4 days was greater than 20 nM.

On to `COCCCn1nc(NS(C)(=O)=O)c2c(Cl)ccc(-n3c([C@H](Cc4cc(F)cc(F)c4)NC(=O)Cn4nc(C(F)F)c5c4C(F)(F)[C@@H]4C[C@H]54)nc4nc(C5CCC(F)(F)CC5)cc(NCCc5ccn(C)n5)c4c3=O)c21` (atropisomer, axis not shown; (P)) [Example 543, N-[(1S)-1-[(3P)-3-[4-chloro-3-methanesulfonamido-1-(3-methoxypropyl)-1H-indazol-7-yl]-7-(4,4-difluorocyclohexyl)-5-{[2-(1-methyl-1H-pyrazol-3-yl)ethyl]amino}-4-oxo-3H,4H-pyrido[2,3-d]pyrimidin-2-yl]-2-(3,5-difluorophenyl)ethyl]-2-[(2S,4R)-9-(difluoromethyl)-5,5-difluoro-7,8-diazatricyclo[4.3.0.0^2,^4]nona-1(6),8-dien-7-yl]acetamide], for which, in series [1], the EC50 was 0.014 nM. Moreover, the CC50 at 4 days in series [2] (setting [3]) was greater than 20 nM.

As to `COCCCn1nc(NS(C)(=O)=O)c2c(Cl)ccc(-n3c([C@H](Cc4cc(F)cc(F)c4)NC(=O)Cn4nc(C(F)F)c5c4C(F)(F)[C@@H]4C[C@H]54)nc4nc(C5CCC(F)(F)CC5)cc(NCC(C)(C)N5CCOCC5)c4c3=O)c21` (atropisomer, axis not shown; (P)) [Example 546, N-[(1S)-1-[(3P)-3-[4-chloro-3-methanesulfonamido-1-(3-methoxypropyl)-1H-indazol-7-yl]-7-(4,4-difluorocyclohexyl)-5-{[2-methyl-2-(morpholin-4-yl)propyl]amino}-4-oxo-3H,4H-pyrido[2,3-d]pyrimidin-2-yl]-2-(3,5-difluorophenyl)ethyl]-2-[(2S,4R)-9-(difluoromethyl)-5,5-difluoro-7,8-diazatricyclo[4.3.0.0^2,^4]nona-1(6),8-dien-7-yl]acetamide], the EC50 in series [1] is 0.017 nM. The CC50 at 4 days in series [2] (setting [3]) is greater than 20 nM.

Consider `COCCCn1nc(NS(C)(=O)=O)c2c(Cl)ccc(-n3c([C@H](Cc4cc(F)cc(F)c4)NC(=O)Cn4nc(C(F)F)c5c4C(F)(F)[C@@H]4C[C@H]54)nc4nc(C5CCC(F)(F)CC5)cc(NCCC5CCCCC5)c4c3=O)c21` (atropisomer, axis not shown; (P)) [Example 549, N-[(1S)-1-[(3P)-3-[4-chloro-3-methanesulfonamido-1-(3-methoxypropyl)-1H-indazol-7-yl]-5-[(2-cyclohexylethyl)amino]-7-(4,4-difluorocyclohexyl)-4-oxo-3H,4H-pyrido[2,3-d]pyrimidin-2-yl]-2-(3,5-difluorophenyl)ethyl]-2-[(2S,4R)-9-(difluoromethyl)-5,5-difluoro-7,8-diazatricyclo[4.3.0.0^2,^4]nona-1(6),8-dien-7-yl]acetamide], for which the EC50 in series [1] was found to be 0.258 nM. The half-maximal cytotoxic concentration (CC50) at 4 days in series [2] (setting [3]) was greater than 20 nM.

`COCCCn1nc(NS(C)(=O)=O)c2c(Cl)ccc(-n3c([C@H](Cc4cc(F)cc(F)c4)NC(=O)Cn4nc(C(F)F)c5c4C(F)(F)[C@@H]4C[C@H]54)nc4nc(C5CCC(F)(F)CC5)cc(NCCC5CCOCC5)c4c3=O)c21` (atropisomer, axis not shown; (P)) [Example 550, N-[(1S)-1-[(3P)-3-[4-chloro-3-methanesulfonamido-1-(3-methoxypropyl)-1H-indazol-7-yl]-7-(4,4-difluorocyclohexyl)-5-{[2-(oxan-4-yl)ethyl]amino}-4-oxo-3H,4H-pyrido[2,3-d]pyrimidin-2-yl]-2-(3,5-difluorophenyl)ethyl]-2-[(2S,4R)-9-(difluoromethyl)-5,5-difluoro-7,8-diazatricyclo[4.3.0.0^2,^4]nona-1(6),8-dien-7-yl]acetamide]: the EC50 in series [1] was found to be 0.012 nM. Also, the CC50 at 4 days in series [2] (setting [3]) was greater than 20 nM.

`COCCCn1nc(NS(C)(=O)=O)c2c(Cl)ccc(-n3c([C@H](Cc4cc(F)cc(F)c4)NC(=O)Cn4nc(C(F)F)c5c4C(F)(F)[C@@H]4C[C@H]54)nc4nc(C5CCC(F)(F)CC5)cc(NCCN5CCC(F)(F)C5)c4c3=O)c21` (atropisomer, axis not shown; (P)) [Example 552, N-[(1S)-1-[(3P)-3-[4-chloro-3-methanesulfonamido-1-(3-methoxypropyl)-1H-indazol-7-yl]-7-(4,4-difluorocyclohexyl)-5-{[2-(3,3-difluoropyrrolidin-1-yl)ethyl]amino}-4-oxo-3H,4H-pyrido[2,3-d]pyrimidin-2-yl]-2-(3,5-difluorophenyl)ethyl]-2-[(2S,4R)-9-(difluoromethyl)-5,5-difluoro-7,8-diazatricyclo[4.3.0.0^2,^4]nona-1(6),8-dien-7-yl]acetamide]: the EC50 in series [1] turned out to be 0.006 nM. Moreover, the CC50 at 4 days in series [2] (setting [3]) is greater than 20 nM.

As for `COCCCn1nc(NS(C)(=O)=O)c2c(Cl)ccc(-n3c([C@H](Cc4cc(F)cc(F)c4)NC(=O)Cn4nc(C(F)F)c5c4C(F)(F)[C@@H]4C[C@H]54)nc4nc(C5(F)CCC(F)(F)CC5)cc(C)c4c3=O)c21` (atropisomer, axis not shown; (P)) [Example 553, N-[(1S)-1-[(3P)-3-[4-chloro-3-methanesulfonamido-1-(3-methoxypropyl)-1H-indazol-7-yl]-5-methyl-4-oxo-7-(1,4,4-trifluorocyclohexyl)-3H,4H-pyrido[2,3-d]pyrimidin-2-yl]-2-(3,5-difluorophenyl)ethyl]-2-[(2S,4R)-9-(difluoromethyl)-5,5-difluoro-7,8-diazatricyclo[4.3.0.0^2,^4]nona-1(6),8-dien-7-yl]acetamide], the EC50 in series [1] was 0.024 nM. The CC50 at 4 days in series [2] (setting [3]) was greater than 20 nM.

Broadly, the EC50 is the concentration giving half of the maximal effect. What is called CC50 is the concentration giving 50% cytotoxicity.
